Test results taken from US20210093619A1, “Chemical Compounds as ATF-4 Pathway Inhibitors” (GlaxoSmithKline Intellectual Property Development Limited, priority 2017, published 2021).

tested on: ATF4 pathway; assay: ATF4 Cell Based Assay (SH-SY5Y-ATF4-NanoLuc reporter, Thapsigargin challenge); details: SH-SY5Y-ATF4-NanoLuc cells, Thapsigargin 14-18 hours; average of a set of two or more experimental runs; read-out: average ATF4 pathway inhibitory activity (IC50)
Source text: The ATF4 reporter assay measures the effect of Thapsigargin induced cellular stress on ATF4 expression. For this reporter assay, a stable cell line was created by transfecting SH-SY5Y cells with a plasmid containing the NanoLuc® luciferase gene fused to the 5′-UTR of ATF4, under the control of the CMV promoter. The ATF4 5′-UTR contains two open reading frames which mediate the cellular stress-dependent translation of the reporter gene. Clones stably expressing the reporter construct were isolated and selected based on the luminescence response to thapsigargin and inhibition of this signal by test compounds. Briefly, SH-SY5Y-ATF4-NanoLuc cells were challenged with Thapsigargin for 14-18 hours to determine the stress effect with or without test compounds.
Cells were propagated in growth media consisting of 90% DMEM F12 (InVitrogen #11320-033), 10% Fetal Bovine Serum (Gibco #10438-026), 5mM Glutamax (Gibco #35050-061), 5 mM Hepes, (Gibco #15630-080), and 0.5 mg/ml Geneticin (Gibco #10131-027). Cells were prepared for the assay by removing all media from cells, washing the plated cells with phosphate buffered saline, and detached by adding a solution comprised of 10% Tryple express solution (InVitrogen12604-021) and 90% enzyme-free cell dissociation buffer HANKS base (Gibco 13150-016). The trypsin was deactivated by adding assay media comprised of 90% phenol-red free DMEM F12 (InVitrogen, 11039), 10% Fetal Bovine Serum (Gibco #10438-026),(5 mM Glutamax (Gibco #35050-061), 5 mM Hepes, (Gibco #15630-080), and 0.5 mg/ml Geneticin (Gibco #10131-027). Suspended cells were spun down at 300 g for 5 min, the supernatant was removed and the cell pellet was suspended in warm media (30-37° C.) comprised as above but without 10% Fetal Bovine Serum to a concentration of 1 e6 cells/ml.
Assay plates were prepared by adding 250 nL of compound stock solution in 100% DMSO to each well, followed by dispensing 20 microliters/well cell suspension to deliver 15-20 k cell/well. Cells were incubated for 1 hour at 37° C. Then, 5 μL of 1.5 μM or 1 μM of Thapsigargin (final concentration: 200-300 nM) was added to each well of cells. Assay plates containing cells were incubated for 14-18 hours at 37° C.
The measurement of luciferase produced by the ATF4 constructs was measured as follows. Aliquots of the Nano-Glo reagent (Nano-Glo® Luciferase Assay Substrate, Promega, N113, Nano-Glo® Luciferase Assay Buffer, Promega, N112 (parts of Nano-Glo® Luciferase Assay System, N1150) were brought to room temperature, the substrate and buffer were mixed according to manufacturer's instructions. The cell plates were equilibrated to room temperature. 25 microliters/well of the mixed Nano-Glo reagent were dispensed into assay wells and pulse spun to settle contents and the plate was sealed with film. The plates were incubated at room temperature for 1 hour before detecting luminescence on an EnVision® plate reader.

IC50	SMILES
20 nM	O=C(COc1ccc(F)cc1)NC12CC(N3CCC(Oc4ccc(Cl)cc4)C3)(C1)C2 (single isomer, unassigned) [Example 6e, N-(3-(3-(4-chlorophenoxy)pyrrolidin-1-yl)bicyclo[1.1.1]pentan-1-yl)-2-(4-fluorophenoxy)acetamide]
5.7 nM	O=C(COc1ccc(Cl)c(F)c1)NC12CC(N3CCC(Oc4ccc(Cl)cc4)C3)(C1)C2 (single isomer, unassigned) [Example 6o, 2-(4-chloro-3-fluorophenoxy)-N-(3-(3-(4-chlorophenoxy)pyrrolidin-1-yl)bicyclo[1.1.1]pentan-1-yl)acetamide]
9.9 nM	O=C(COc1ccc(Cl)cc1)NC12CC(N3CCC(Oc4ccc(Cl)c(F)c4)C3)(C1)C2 (single isomer, unassigned) [Example 6v, N-(3-(3-(4-chloro-3-fluorophenoxy)pyrrolidin-1-yl)bicyclo[1.1.1]pentan-1-yl)-2-(4-chlorophenoxy)acetamide]
6.7 nM	O=C(COc1ccc(Cl)cc1)NC12CC(N3CCC(Oc4ccc(Cl)cc4)C3)(C1)C2 (stereo in doubt) [Example 6c, (R)-2-(4-chlorophenoxy)-N-(3-(3-(4-chlorophenoxy)pyrrolidin-1-yl)bicyclo[1.1.1]pentan-1-yl)acetamide]
17 nM	O=C(COc1cccc(Cl)c1)NC12CC(N3CCN(c4ccc(Cl)cc4)C3=O)(C1)C2 [Example 1g, 2-(3-chlorophenoxy)-N-(3-(3-(4-chlorophenyl)-2-oxoimidazolidin-1-yl)bicyclo[1.1.1]pentan-1-yl)acetamide]
34 nM	O=C(COc1ccc(Cl)cn1)NC12CC(N3CCN(c4ccc(Cl)cc4)C3=O)(C1)C2 [Example 1k, N-(3-(3-(4-chlorophenyl)-2-oxoimidazolidin-1-yl)bicyclo[1.1.1]pentan-1-yl)-2-((5-chloropyridin-2-yl)oxy)acetamide]
1.6 nM	O=C(COc1ccc(Cl)c(C(F)(F)F)c1)NC12CC(N3CCN(c4ccc(Cl)cc4)C3=O)(C1)C2 [Example 1l, 2-(4-chloro-3-(trifluoromethyl)phenoxy)-N-(3-(3-(4-chlorophenyl)-2-oxoimidazolidin-1-yl)bicyclo[1.1.1]pentan-1-yl)acetamide]
0.6 nM	O=C(COc1ccc(Cl)c(F)c1)NC12CC(N3CCN(c4ccc(Cl)cc4)C3=O)(C1)C2 [Example 1m, 2-(4-chloro-3-fluorophenoxy)-N-(3-(3-(4-chlorophenyl)-2-oxoimidazolidin-1-yl)bicyclo[1.1.1]pentan-1-yl)acetamide]
10.3 nM	O=C(COc1ccc(F)c(Cl)c1)NC12CC(N3CCN(c4ccc(Cl)cc4)C3=O)(C1)C2 [Example 1o, 2-(3-chloro-4-fluorophenoxy)-N-(3-(3-(4-chlorophenyl)-2-oxoimidazolidin-1-yl)bicyclo[1.1.1]pentan-1-yl)acetamide]
1.8 nM	O=C(COc1ccc(Cl)cc1)NC12CC(N3CCN(c4ccc(C(F)(F)F)cc4)C3=O)(C1)C2 [Example 1r, 2-(4-chlorophenoxy)-N-(3-(2-oxo-3-(4-(trifluoromethyl)phenyl)imidazolidin-1-yl)bicyclo[1.1.1]pentan-1-yl)acetamide]
51.7 nM	COc1ccc(N2CCN(C34CC(NC(=O)COc5ccc(Cl)cc5)(C3)C4)C2=O)cc1 [Example 1t, 2-(4-chlorophenoxy)-N-(3-(3-(4-methoxyphenyl)-2-oxoimidazolidin-1-yl)bicyclo[1.1.1]pentan-1-yl)acetamide]
23.2 nM	O=C(COc1ccc(Cl)cc1)NC12CC(N3CCN(c4ccc(Cl)cc4F)C3=O)(C1)C2 [Example 1v, N-(3-(3-(4-chloro-2-fluorophenyl)-2-oxoimidazolidin-1-yl)bicyclo[1.1.1]pentan-1-yl)-2-(4-chlorophenoxy)acetamide]
3.6 to 13.6 nM	O=C(COc1ccc(Cl)cc1)NC12CC(NC3CN(c4ccc(Cl)cc4)C3)(C1)C2 [Example 3a, 2-(4-chlorophenoxy)-N-(3-((1-(4-chlorophenyl)azetidin-3-yl)amino)bicyclo[1.1.1]pentan-1-yl)acetamide]
3.6 to 13.6 nM	O=C(COc1ccc(Cl)cc1)NC12CC(N3CC(Oc4ccc(Cl)cc4)C3)(C1)C2 [Example 3b, 2-(4-chlorophenoxy)-N-(3-(3-(4-chlorophenoxy)azetidin-1-yl)bicyclo[1.1.1]pentan-1-yl)acetamide]
12.2 nM	O=C(COc1ccc(Cl)cc1)NC12CC(NC(=O)COc3ccc4c(c3)CCCO4)(C1)C2 [Example 4d, 2-(4-chlorophenoxy)-N-(3-(2-(chroman-6-yloxy)acetamido)bicyclo[1.1.1]pentan-1-yl)acetamide]
6.9 nM	O=C(COc1ccc(C(F)(F)F)cc1)NC12CC(N3CCC(Oc4ccc(Cl)cc4)C3)(C1)C2 (centres unmarked) [Example 6i, N-(3-(3-(4-chlorophenoxy)pyrrolidin-1-yl)bicyclo[1.1.1]pentan-1-yl)-2-(4-(trifluoromethyl)phenoxy)acetamide]
24.6 nM	O=C(COc1ccc(Cl)c(C(F)(F)F)c1)NC12CC(N3CCC(Oc4ccc(Cl)cc4)C3)(C1)C2 (centres unmarked) [Example 6k, 2-(4-chloro-3-(trifluoromethyl)phenoxy)-N-(3-(3-(4-chlorophenoxy)pyrrolidin-1-yl)bicyclo[1.1.1]pentan-1-yl)acetamide]
1.1 nM	O=C(COc1ccc(Cl)c(F)c1)NC12CC(N3CCC(Oc4ccc(Cl)cc4)C3)(C1)C2 (centres unmarked) [Example 6q, 2-(4-chloro-3-fluorophenoxy)-N-(3-(3-(4-chlorophenoxy)pyrrolidin-1-yl)bicyclo[1.1.1]pentan-1-yl)acetamide]
5.1 nM	O=C(COc1ccc(Cl)cc1)NC12CC(N3CCC(Oc4ccc(Cl)cc4)CC3)(C1)C2 [Example 8a, 2-(4-chlorophenoxy)-N-(3-(4-(4-chlorophenoxy)piperidin-1-yl)bicyclo[1.1.1]pentan-1-yl)acetamide]
8.89 nM	O=C(COc1ccc(Cl)cc1)NC12CCC(NC(=O)COc3ccc(Cl)nc3)(CC1)CC2 [Example III, 2-(4-chlorophenoxy)-N-(4-(2-((6-chloropyridin-3-yl)oxy)acetamido)bicyclo[2.2.2]octan-1-yl)acetamide]
300 nM	Cc1ccc(OCC(=O)NC23CC(NC(=O)COc4ccc(Cl)cc4)(C2)C3)cn1 [Example IX, 2-(4-chlorophenoxy)-N-(3-(2-((6-methylpyridin-3-yl)oxy)acetamido)bicyclo[1.1.1]pentan-1-yl)acetamide]
4.1 nM	O=C(COc1ccc(Cl)cc1)NC12CC(NC(=O)Cc3ccc(Cl)cc3)(C1)C2 [Example VI, 2-(4-chlorophenoxy)-N-(3-(2-(4-chlorophenyl)acetamido)bicyclo[1.1.1]pentan-1-yl)acetamide]
25.2 nM	O=C(COc1ccc(Cl)cc1)NC12CC(NC(=O)c3ccc(Cl)cc3)(C1)C2 [Example XII, 4-chloro-N-(3-(2-(4-chlorophenoxy)acetamido)bicyclo[1.1.1]pentan-1-yl)benzamide]
13 nM	COC(=O)CN(CCOc1ccc(Cl)cc1)C12CC(NC(=O)COc3ccc(Cl)cc3)(C1)C2 [Example XVI, methyl N-(3-(2-(4-chlorophenoxy)acetamido)bicyclo[1.1.1]pentan-1-yl)-N-(2-(4-chlorophenoxy)ethyl)glycinate]
33 nM	O=C(COc1ccc(Cl)cc1)NC12CC(NCCNc3ccc(Cl)cc3)(C1)C2 [Example XXI, 2-(4-chlorophenoxy)-N-(3-((2-((4-chlorophenyl)amino)ethyl)amino)bicyclo[1.1.1]pentan-1-yl)acetamide]
7.3 nM	O=C(COc1ccc(Cl)cc1)NC12CC(N3CCC(Oc4ccc(Cl)cc4)C3)(C1)C2 (centres unmarked) [XXIV and 6a]
